This note sets out measurements from PubChem BioAssay (NCI).

Assay in all cases: NCI-60 cell line screen, 48 h
Test [1] deals with HL-60(TB) leukemia.
Test [2] relates to NCI-H23 lung.
Test [3] deals with UACC-257 melanoma.
In test [4] the test system is K-562 leukemia.
The subject of test [5] is SK-MEL-2 melanoma.
Test [6] relates to IGROV1 ovarian.
For test [7], the system named is U251 CNS.
The subject of test [8] is UO-31 renal.
Test [9] has as its system CAKI-1 renal.
Test [10] deals with MDA-MB-435.

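Following 48 hours of exposure in 96-well plates, responses at five concentrations were used to interpolate endpoints linearly. GI50 = concentration required for 50% inhibition of growth. At the TGI there is no net growth.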 Some results are limits rather than exact numbers.

With `CC(=C(c1ccc(OCCN2CCCCC2)cc1)c1ccc(OCCN2CCCCC2)cc1)c1ccc(Cl)cc1`, the GI50 in test [1] is 0.452 µM; in [2] it was 0.466 µM; in test [3], 0.454 µM; in test [4] it was 0.0775 µM; in test [5], 0.459 µM; in test [6] it was 0.432 µM. In addition, the GI50 in test [7] is 0.387 µM; in test [8] it was 0.354 µM; in test [9], 397 nM; in test [10], 0.416 µM. Besides, the TGI in test [1] worked out at 0.957 µM; in test [2], 0.913 µM; in test [3], 0.884 µM; in [4] it was 0.362 µM; in test [5], 0.909 µM; in [6] it was 0.82 µM. In addition, the TGI in test [7] amounted to 0.747 µM; in test [8] it was 0.681 µM; in test [9], 0.74 µM; in test [10] it was 0.777 µM.

Regarding `CCC(C)SC1SCC2C(=O)N(C)C3(CC3C)C(=O)OCC(NC(=O)c3nc4ccccc4cc3O)C(=O)NC(C)C(=O)N(C)C1C(=O)N(C)C1(CC1C)C(=O)OCC(NC(=O)c1nc3ccccc3cc1O)C(=O)NC(C)C(=O)N2C` (stereo not given), the TGI in [1] amounted to 0.00488 µM; in test [2], 0.000154 µM; in test [3] it was 0.000219 µM; in test [5], 0.000304 µM; in test [6], 3.54 µM; in test [7], 0.0172 µM. Besides, the results for the TGI in test [8] and in [10] were 0.0127 µM and 0.00019 µM, respectively. For the same compound, in test [9], the GI50 is 0.087 nM.

Take `Cc1ccc(NC2=C3CCCCC3OC2=O)cc1` (stereo not given): the GI50 in [1] was 55.6 µM; in test [2], 60.5 µM; in [3] it was 63.1 µM; in test [4] it was 45.1 µM; in test [6], 54.3 µM; in test [8], 27.6 µM. In addition, the GI50 in [9] is 49500 nM; in test [10], 55.2 µM. Also, the TGI in [1], in test [2], in test [3], in test [4], in test [6] and in test [8] was > 100 µM in each case. The TGI in test [9] and in test [10] was > 100 µM in each case.

As for `NCCNCCNCCN`, the GI50 in [1], in [2], in test [3], in test [4], in [5] and in test [6] was > 100 µM throughout. In addition, the GI50 in test [7] is > 100 µM; in [8], > 100 µM; in [9], > 100000 nM; in test [10] it was > 100 µM. The TGI in test [1], in test [2], in [3], in [4], in [5] and in test [6] was > 100 µM each time. The TGI in test [7], in [8], in [9] and in test [10] was > 100 µM throughout.

`C=C1C(=O)O[C@H]2[C@H]1CC/C(CNC(=O)c1cc3ccccc3[nH]1)=C\CC[C@@]1(C)O[C@@H]21`: the GI50 is 2.01 µM in [1]; 1.68 µM in test [2]; 0.642 µM in test [4]; 1.88 µM in test [5]; 1.32 µM in [6]; 1.68 µM in test [7]. For the same compound, the GI50 is 1.29 µM in test [8], 1270 nM in test [9] and 1.58 µM in [10]. Also, the TGI in test [1] was 5.8 µM; in test [2] it was 4.26 µM; in [4] it was 4.92 µM; in test [5], 4.29 µM; in [6], 5.4 µM; in test [7] it was 3.26 µM. Also, the TGI is 2.9 µM in test [8], 4.26 µM in test [9] and 4.63 µM in [10].

For the compound `O=C(Nc1nn2c(-c3cc(C(F)(F)F)cc(C(F)(F)F)c3)nnc2s1)C1CCCC1`, the GI50 in test [1] is 0.407 µM; in test [2], 0.394 µM; in [3] it was 0.419 µM; in test [4], 0.488 µM; in [5], 0.529 µM; in [6] it was 0.553 µM. For the same compound, the GI50 in test [7] was 0.854 µM; in [8], 0.402 µM; in test [9], 311 nM; in [10], 0.424 µM. Further, the TGI is 1.75 µM in test [1]; > 100 µM in test [2]; 3.49 µM in test [3]; > 100 µM in test [4]; 2.4 µM in [5]; > 100 µM in [6]. Besides, the TGI in test [7] is > 100 µM; in [8], 5.57 µM; in test [9], > 65.2 µM; in [10] it was > 39.8 µM.

Regarding `Nc1nc2[nH]cc(CCc3ccc(C(=O)N[C@@H](CCC(=O)O)C(=O)O)cc3)c2c(=O)[nH]1`, the GI50 in [1] was 0.684 µM; in test [7], 14.6 µM; in test [8] it was 0.19 µM; in test [9], 84.5 nM. Besides, the TGI in [1], in test [2], in test [3], in test [4], in test [5] and in test [6] was > 100 µM each time. Further, the TGI in [7], in test [8], in test [9] and in test [10] was > 100 µM in each case.

`COC1=CC(=O)C(C2(OC(C)C)OC(=O)C(Cl)=C2Cl)=CC1=O` (stereo not given): the TGI in test [1] was 1.55 µM; in test [2] it was > 100 µM; in [3] it was > 100 µM; in test [4], 10.8 µM; in test [5] it was 98.8 µM; in [8], > 100 µM. Further, the TGI in test [9] and in test [10] was > 100 µM each time.

On to `Cc1cc2c(cc1C)[n+](=O)c(C(=O)c1ccccc1)c(C(F)F)n2[O-]`, for which the GI50 in test [1] is 3.3 µM; in test [2], 26.3 µM; in test [4], 10.1 µM; in test [5], 21.2 µM; in test [6] it was 15.1 µM; in [7] it was 12.7 µM. For the same compound, the figures for the GI50 in test [8], in test [9] and in test [10] were 19.2 µM, 15500 nM and 26.3 µM, respectively. For the same compound, the TGI in test [1] is 18.9 µM; in test [2] it was > 100 µM; in test [4], > 100 µM; in test [5], 78.3 µM; in test [6] it was > 100 µM; in test [7], > 100 µM. The TGI in [8] is > 100 µM; in test [9], 71.7 µM; in test [10], > 100 µM.

On to `O=C1CSC(=S)N1/N=C/c1ccc(Cl)c([N+](=O)[O-])c1`, for which the TGI is 61 µM in test [1]; 31.9 µM in test [2]; 62.8 µM in [3]; > 100 µM in test [4]; 92.7 µM in [5]; > 100 µM in [6]. Besides, the TGI in [7] is 35.3 µM; in test [8], 71 µM; in [9], > 100 µM; in test [10], 54.3 µM.

Turning to `Br[Se]c1ccccn1`, the TGI in test [1] is 40.3 µM; in test [2] it was 39.3 µM; in test [3], 31.7 µM; in test [4], 72 µM; in [5], 30.1 µM; in test [6], 31.5 µM. Moreover, the TGI in test [7] was determined as 29 µM; in test [8] it was 31.2 µM; in test [9], 33 µM; in [10] it was 31.8 µM.

`C=C1C[C@H](O)[C@H](Br)C(C)(C)[C@@]12CCC(C)=C(Cl)C2`: the GI50 in [1] was 0.206 µM; in test [2], 0.173 µM; in [4], 0.443 µM; in [5], 0.422 µM; in test [6] it was 0.25 µM; in test [7], 0.367 µM. Also, the figures for the GI50 in test [8], in [9] and in test [10] were 0.612 µM, 133 nM and 0.327 µM, respectively. The TGI in test [1] turned out to be 0.761 µM; in [2], 2.99 µM; in test [4], 10.4 µM; in test [5], 2.61 µM; in test [6] it was 11.7 µM; in test [7] it was 12.2 µM. Also, the figures for the TGI in test [8], in [9] and in test [10] were 3.25 µM, 13.2 µM and 1.72 µM, respectively.

In the case of `CN1CCN(c2ccc(Nc3ncc(Cl)c(NC[C@@H]4CCCO4)n3)cc2)CC1`, the GI50 in test [1] is 1.48 µM; in [2], 0.987 µM; in test [3] it was 6.46 µM; in test [4], 2.94 µM; in test [5], 2.59 µM; in test [6], 1.56 µM. For the same compound, the GI50 in test [7] was 2 µM; in [9], 2070 nM; in test [10], 1.64 µM. For the same compound, the TGI in test [1] was 4.76 µM; in test [2], 11.6 µM; in test [3], 32.6 µM; in [4] it was > 100 µM; in test [5], 7.94 µM; in test [6], > 100 µM. In addition, the TGI was 49.1 µM in test [7], > 100 µM in test [9] and 15.3 µM in test [10].

Turning to `C=C(C)C12OC1[C@@]1(C)C(=CC2=O)CCC(O)[C@@H]1C` (stereo not given in full), the TGI was 4.26 µM in [1]; 16.2 µM in [2]; > 100 µM in test [3]; 20.1 µM in [5]; 13.3 µM in test [6]; 14.4 µM in [7]. Moreover, the TGI in test [8] worked out at 41.9 µM; in [9] it was 3 µM; in [10], 21.1 µM.

In the case of `COc1ccc(CN2C(=O)C(Cl)=C(Nc3cccc(C(F)(F)F)c3)C2=O)cc1`, the GI50 was 2.56 µM in [1]; 8.08 µM in test [2]; 11.1 µM in test [3]; 3.26 µM in test [4]; 12.3 µM in test [5]; 2.75 µM in test [7]. The GI50 in test [8] was 5.54 µM; in [9], 5160 nM; in [10], 2.77 µM. Moreover, the TGI in [1] is 19.5 µM; in test [2], 42.4 µM; in [3], 27.6 µM; in [4] it was 51.5 µM; in test [5], 27.3 µM; in test [7], 17 µM. The TGI in [8] was 32 µM; in test [9], 24.4 µM; in [10], 9.12 µM.

With `Cc1cc(Nc2ccc(C)c(Cl)c2)n2nc(C(F)(F)F)nc2n1`, the GI50 in test [1] was 22.1 µM; in test [2], 29.4 µM; in test [4], 16 µM; in test [5], 22.9 µM; in [6], 26.7 µM; in test [7], 23.5 µM. Moreover, the GI50 in test [8] was 14.1 µM; in test [9] it was 14600 nM; in test [10] it was 19 µM. In addition, the TGI was 66.2 µM in test [1]; > 100 µM in test [2]; > 100 µM in test [4]; 55.4 µM in test [5]; > 100 µM in test [6]; > 100 µM in test [7]. Also, the results for the TGI in [8], in test [9] and in test [10] were 33.4 µM, 34.7 µM and 55.6 µM, respectively.

With `CC(=O)OC1(C)N=NC2(CCCCC2)O1` (stereo not given), the TGI in [1], in test [2], in test [3], in [4], in test [5] and in [6] was > 100 µM in each case. The TGI in test [7], in test [9] and in [10] was > 100 µM each time.

As to `C[C@@H]1CC[C@H]2C(C)(C)[C@H]3C[C@@]12CC[C@@]3(C)O`, the TGI in test [1] is 61.9 µM; in test [2], > 100 µM; in test [3] it was > 100 µM; in test [4], > 100 µM; in [5], > 100 µM; in [6], > 100 µM. The TGI in test [8], in test [9] and in test [10] was > 100 µM each time.

For `Cc1ccc(-c2nc(N3CCNCC3)c3oc(-c4ccc(C)cc4)nc3n2)cc1`, the GI50 in test [1] was 1.17 µM; in [3] it was > 45.7 µM; in [4] it was 1.81 µM; in test [5], > 41.6 µM; in test [6] it was 1.92 µM; in [7], 1.83 µM. For the same compound, the GI50 was 1.76 µM in [8], 24100 nM in test [9] and 2.3 µM in test [10]. The TGI in test [1] is 3.26 µM; in test [3], > 65.9 µM; in test [4], 4.51 µM; in test [5], > 60.9 µM; in [6], 3.81 µM; in [7] it was 3.32 µM. Besides, the TGI is 3.57 µM in test [8], > 45.6 µM in test [9] and 6.22 µM in [10].
